The values that follow come from patent publication US10150760B2, “Compounds for use in preparing heterocyclic triazole agonists of the APJ receptor” (AMGEN INC., priority 2016, dated 2018).

As usually defined, the pEC50 is the negative decadic logarithm of the EC50, by convention in mol/L.

pEC50: −log10 of the molar value.

This test deals with human APJ receptor (Homo sapiens (Human), UniProt P35414). The experiment in a line: [35S]GTPγS binding assay on membranes from CHO cells stably expressing human APJ receptor. In kind it is biochemical. The settings on record: read-out: Activity hAPJ SPA EC50 IP. As to the method: The human APJ receptor was cloned by polymerase chain reaction and the gene encoding the receptor was subcloned in pFLAG-CMV™-3 expression vector (Sigma, Saint Louis, Mo. USA) in-house at Amgen. A GTPγS binding assay was performed on membranes prepared from CHO cells stably expressing human APJ receptor. The optimum experimental conditions for the concentrations of GDP, MgCl2, and NaCl in the assay buffer were initially determined. The assay was performed in assay buffer [20 mM HEPES, pH 7.5, 5 mM MgCl2, and 0.1% (w/v) BSA with 200 mM NaCl, 3 μM GDP] and membranes expressing human APJ receptor/well along with WGA PS beads. The reaction was initiated by addition of 0.2 nM [^35S]GTPγS (Perkin Elmer Life and Analytical Sciences, Waltham USA) in the absence or presence of various ligands and incubated at RT for 90 min. Nonspecific binding was determined in the presence of 100 μM GTPγS and was always less than 0.2% of total binding. All the results presented are means of several independent experiments and analyzed by non-linear regression methods using commercially available program Prism (GraphPad, San Diego, Calif.) to obtain EC50 detailed in Table 38.
Sequence of human APJ receptor (P35414 whole entry): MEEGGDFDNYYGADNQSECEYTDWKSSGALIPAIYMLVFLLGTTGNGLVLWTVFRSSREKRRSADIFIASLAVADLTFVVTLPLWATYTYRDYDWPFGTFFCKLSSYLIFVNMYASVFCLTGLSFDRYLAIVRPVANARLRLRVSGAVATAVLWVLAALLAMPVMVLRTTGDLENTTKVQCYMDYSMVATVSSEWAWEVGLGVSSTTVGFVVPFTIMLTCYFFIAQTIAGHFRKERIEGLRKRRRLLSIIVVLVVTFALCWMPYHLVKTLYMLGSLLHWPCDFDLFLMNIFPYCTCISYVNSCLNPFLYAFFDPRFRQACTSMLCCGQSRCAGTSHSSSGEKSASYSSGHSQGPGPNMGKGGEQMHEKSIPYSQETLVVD
A general note: Binding of GTPγS marks nucleotide exchange on a G protein.
Regarding `COc1cccc(OC)c1-n1c(NS(=O)(=O)[C@@H](C)[C@H](OC)c2ncc(C)cn2)nnc1[C@@H]1CCNC1` (mixture of isomers) [Example 45.0, (1R,2S)-N-(4-(2,6-Dimethoxyphenyl)-5-((R)-pyrrolidin-3-yl)-4H-1,2,4-triazol-3-yl)-1-methoxy-1-(5-methylpyrimidin-2-yl)propane-2-sulfonamide and (1R,2S)-N-(4-(2,6-dimethoxyphenyl)-5-((S)-pyrrolidin-3-yl)-4H-1,2,4-triazol-3-yl)-1-methoxy-1-(5-methylpyrimidin-2-yl)propane-2-sulfonamide], the negative-log EC50 (pEC50) was 6.29.

With `COc1cccc(OC)c1-n1c(NS(=O)(=O)[C@@H](C)[C@H](C)c2ncc(C)cn2)nnc1[C@H]1CCCO1` (mixture of isomers) [Example 48.0, (2S,3R)-N-(4-(2,6-dimethoxyphenyl)-5-((R)-tetrahydrofuran-2-yl)-4H-1,2,4-triazol-3-yl)-3-(5-methylpyrimidin-2-yl)butane-2-sulfonamide and (2S,3R)-N-(4-(2,6-dimethoxyphenyl)-5-((S)-tetrahydrofuran-2-yl)-4H-1,2,4-triazol-3-yl)-3-(5-methylpyrimidin-2-yl)butane-2-sulfonamide], the pEC50 was 8.41.

Turning to `COc1cccc(OC)c1-n1c(NS(=O)(=O)[C@@H](C)[C@H](C)c2ncc(Cl)cn2)nnc1[C@H]1CCO1` (mixture of isomers) [Example 142.0, (2S,3R)-3-(5-chloropyrimidin-2-yl)-N-(4-(2,6-dimethoxyphenyl)-5-((R)-oxetan-2-yl)-4H-1,2,4-triazol-3-yl)butane-2-sulfonamide and (2S,3R)-3-(5-chloropyrimidin-2-yl)-N-(4-(2,6-dimethoxyphenyl)-5-((S)-oxetan-2-yl)-4H-1,2,4-triazol-3-yl)butane-2-sulfonamide], the pEC50 is 8.72.

On to `COc1cccc(OC)c1-n1c(NS(=O)(=O)CCc2ccc(F)cc2C#N)nnc1[C@@H]1CCCO1` (mixture of isomers) [Example 146.0, (S)-2-(2-Cyano-4-fluorophenyl)-N-(4-(2,6-dimethoxyphenyl)-5-(tetrahydrofuran-2-yl)-4H-1,2,4-triazol-3-yl)ethanesulfonamide and (R)-2-(2-cyano-4-fluorophenyl)-N-(4-(2,6-dimethoxyphenyl)-5-(tetrahydrofuran-2-yl)-4H-1,2,4-triazol-3-yl)ethanesulfonamide], for which the pEC50 was 6.35.

Consider `COc1cnc([C@@H](C)[C@H](C)S(=O)(=O)Nc2nnc([C@@H]3CC[C@H](C)O3)n2-c2c(OC)cccc2OC)nc1` (mixture of isomers) [Example 249.0, (2S,3R)-N-(4-(2,6-dimethoxyphenyl)-5-((2R,5R)-5-methyltetrahydro-2-furanyl)-4H-1,2,4-triazol-3-yl)-3-(5-methoxy-2-pyrimidinyl)-2-butanesulfonamide and (2S,3R)-N-(4-(2,6-dimethoxyphenyl)-5-((2S,5S)-5-methyltetrahydro-2-furanyl)-4H-1,2,4-triazol-3-yl)-3-(5-methoxy-2-pyrimidinyl)-2-butanesulfonamide], for which the negative logarithm of the EC50 (pEC50) is 6.27.

On to `COCC1(n2c(NS(=O)(=O)[C@@H](C)[C@H](OC)c3ncc(Cl)cn3)nnc2[C@H]2CCOC2)CC1` (mixture of isomers) [Example 303.0, (1R,2S)-1-(5-chloro-2-pyrimidinyl)-1-methoxy-N-(4-(1-(methoxymethyl)cyclopropyl)-5-((3R)-tetrahydro-3-furanyl)-4H-1,2,4-triazol-3-yl)-2-propanesulfonamide and (1R,2S)-1-(5-chloro-2-pyrimidinyl)-1-methoxy-N-(4-(1-(methoxymethyl)cyclopropyl)-5-((3S)-tetrahydro-3-furanyl)-4H-1,2,4-triazol-3-yl)-2-propanesulfonamide], for which the negative logarithm of the EC50 (pEC50) was 6.47.

In the case of `COCC1(n2c(NS(=O)(=O)[C@@H](C)[C@H](OC)c3ncc(Cl)cn3)nnc2[C@H]2COCCO2)CC1` (mixture of isomers) [Example 304.0, (1R,2S)-N-(5-((S)-1,4-dioxan-2-yl)-4-(1-(methoxymethyl)cyclopropyl)-4H-1,2,4-triazol-3-yl)-1-(5-chloropyrimidin-2-yl)-1-methoxypropane-2-sulfonamide and (1R,2S)-N-(5-((R)-1,4-dioxan-2-yl)-4-(1-(methoxymethyl)cyclopropyl)-4H-1,2,4-triazol-3-yl)-1-(5-chloropyrimidin-2-yl)-1-methoxypropane-2-sulfonamide], the negative-log EC50 (pEC50) was 6.68.

Consider `COc1cccc(OC)c1-n1c(NS(=O)(=O)CCc2ncc(Cl)cn2)nnc1[C@@H]1COCCO1` (mixture of isomers) [Example 387.0, 2-(5-chloro-2-pyrimidinyl)-N-(4-(2,6-dimethoxyphenyl)-5-((2R)-1,4-dioxan-2-yl)-4H-1,2,4-triazol-3-yl)ethanesulfonamide and 2-(5-chloro-2-pyrimidinyl)-N-(4-(2,6-dimethoxyphenyl)-5-((2S)-1,4-dioxan-2-yl)-4H-1,2,4-triazol-3-yl)ethanesulfonamide], for which the negative-log EC50 (pEC50) was 7.32.

Take `COc1cccc(OC)c1-n1c(NS(=O)(=O)CCc2ccc(Cl)cc2)nnc1[C@@H]1CCCO1` (racemic) [Example 143.0, (S)-2-(4-Chlorophenyl)-N-(4-(2,6-dimethoxyphenyl)-5-(tetrahydrofuran-2-yl)-4H-1,2,4-triazol-3-yl)ethanesulfonamide and (R)-2-(4-chlorophenyl)-N-(4-(2,6-dimethoxyphenyl)-5-(tetrahydrofuran-2-yl)-4H-1,2,4-triazol-3-yl)ethanesulfonamide]: the negative-log EC50 (pEC50) is 6.92.

For the compound `CO[C@H]1CCC[C@@H](OC)[C@@H]1n1c(NS(=O)(=O)[C@@H](C)[C@H](C)c2ncc(C)cn2)nnc1[C@@H]1CCCO1` (single isomer, unassigned) [Example 3.0, (2S,3R)-N-(4-((1r,2R,6S)-2,6-Dimethoxycyclohexyl)-5-((2S)-tetrahydro-2-furanyl)-4H-1,2,4-triazol-3-yl)-3-(5-methyl-2-pyrimidinyl)-2-butanesulfonamide or (2S,3R)-N-(4-((1r,2R,6S)-2,6-dimethoxycyclohexyl)-5-((2R)-tetrahydro-2-furanyl)-4H-1,2,4-triazol-3-yl)-3-(5-methyl-2-pyrimidinyl)-2-butanesulfonamide], the negative-log EC50 (pEC50) was 5.92.

With `COc1cccc(OC)c1-n1c(NS(=O)(=O)CCc2ccc(Cl)cc2)nnc1[C@H]1CCOC1` (single isomer, unassigned) [Example 9.0, (R)-2-(4-Chlorophenyl)-N-(4-(2,6-dimethoxyphenyl)-5-(tetrahydrofuran-3-yl)-4H-1,2,4-triazol-3-yl)ethanesulfonamide or (S)-2-(4-chlorophenyl)-N-(4-(2,6-dimethoxyphenyl)-5-(tetrahydrofuran-3-yl)-4H-1,2,4-triazol-3-yl)ethanesulfonamide], the negative logarithm of the EC50 (pEC50) was 6.68.

Consider `COc1cccc(OC)c1-n1c(NS(=O)(=O)[C@@H](C)[C@H](C)c2ncc(C#N)cn2)nnc1[C@@H]1CCCO1` (single isomer, unassigned) [Example 24.0, (2S,3R)-3-(5-Cyano-2-pyrimidinyl)-N-(4-(2,6-dimethoxyphenyl)-5-((2S)-tetrahydro-2-furanyl)-4H-1,2,4-triazol-3-yl)-2-butanesulfonamide or (2S,3R)-3-(5-cyano-2-pyrimidinyl)-N-(4-(2,6-dimethoxyphenyl)-5-((2R)-tetrahydro-2-furanyl)-4H-1,2,4-triazol-3-yl)-2-butanesulfonamide], for which the pEC50 was 8.35.

For `COc1ncnc(OC)c1-n1c(NS(=O)(=O)[C@@H](C)[C@H](C)c2ccc(Cl)cn2)nnc1[C@@H]1CCOC1` (single isomer, unassigned) [Example 37.0, (2S,3R)-3-(5-chloro-2-pyridinyl)-N-(4-(4,6-dimethoxy-5-pyrimidinyl)-5-((3S)-tetrahydro-3-furanyl)-4H-1,2,4-triazol-3-yl)-2-butanesulfonamide or (2S,3R)-3-(5-chloro-2-pyridinyl)-N-(4-(4,6-dimethoxy-5-pyrimidinyl)-5-((3R)-tetrahydro-3-furanyl)-4H-1,2,4-triazol-3-yl)-2-butanesulfonamide], the pEC50 is 7.92.

Turning to `COc1ncnc(OC)c1-n1c(NS(=O)(=O)[C@@H](C)[C@H](C)c2ccc(Cl)cn2)nnc1[C@H]1CCOC1` (single isomer, unassigned) [Example 38.0, (2S,3R)-3-(5-chloro-2-pyridinyl)-N-(4-(4,6-dimethoxy-5-pyrimidinyl)-5-((3R)-tetrahydro-3-furanyl)-4H-1,2,4-triazol-3-yl)-2-butanesulfonamide or (2S,3R)-3-(5-chloro-2-pyridinyl)-N-(4-(4,6-dimethoxy-5-pyrimidinyl)-5-((3S)-tetrahydro-3-furanyl)-4H-1,2,4-triazol-3-yl)-2-butanesulfonamide], the negative-log EC50 (pEC50) was 7.72.

On to `COc1cccc(OC)c1-n1c(NS(=O)(=O)[C@@H](C)[C@H](C)c2ncc(Cl)cn2)nnc1[C@@H]1COCCO1` (single isomer, unassigned) [Example 39.0, (2S,3R)-3-(5-chloro-2-pyrimidinyl)-N-(4-(2,6-dimethoxyphenyl)-5-((2R)-1,4-dioxan-2-yl)-4H-1,2,4-triazol-3-yl)-2-butanesulfonamide or (2S,3R)-3-(5-chloro-2-pyrimidinyl)-N-(4-(2,6-dimethoxyphenyl)-5-((2S)-1,4-dioxan-2-yl)-4H-1,2,4-triazol-3-yl)-2-butanesulfonamide], for which the pEC50 was 8.28.
